According to the SangsterLogP compilation:

Test: method code SF-GLC, from DOI: 10.1002/qsar.19850040403
Conditions: pH 13.0

Compared with `CC(C)N`, `CC(C)CN` is higher in logD: 0.26 for the first, 0.73 for the second.

Going from `CCNC` to `CCNC(C)C`, the logD rises from 0.15 to 0.93.

First: C=CCNCC
Second: C=CCNCCC
The logD of the first is lower: 0.81 for the first, 1.33 for the second.

Compared with `CCCCCN`, `CCCCCCCN` is higher in logD: 1.49 for the first, 2.57 for the second.

First: CCCCC(CC)CN (centres undefined)
Second: CCCCNCCC
The logD of the first is higher: 2.82 for the first, 2.12 for the second.

Compared with `C1CN2CCC1CC2`, `C1CCNC1` is lower in logD: 1.38 for the first, 0.46 for the second.

`CCCN(CCC)CCC` and `CCCN(CC)CCC` are within 0.2 log units of each other in logD: 2.79 for the first, 2.68 for the second.

Compared with `CN(C)CC(F)(F)F`, `CCCN(C)CC(F)(F)F` is higher in logD: 1.06 for the first, 2.18 for the second.

Compared with `CCN(CC)CC(F)(F)F`, `CCCN(CC)CC(F)(F)F` is higher in logD: 1.88 for the first, 2.38 for the second.

`CNCC(F)(F)F` and `CCNCC(F)(F)F` are within 0.2 log units of each other in logD: 0.55 for the first, 0.74 for the second.

`CCCNCC(C)C` and `CCCNC(C)CC` (centres undefined) are within 0.2 log units of each other in logD: 2.07 for the first, 1.91 for the second.

Going from `NCC(F)(F)F` to `CCN(C)C`, the logD rises from 0.24 to 0.7.
